Where two headings read alike, the source gives them in different places.
Columns and labels:
[1] = Impurities of artemether in solvent systems after eight weeks storage (HPLC); type: physicochemical; conditions: in contact with water, ethanol, or propellants for aerosol formulations
From the text: Tables 1 and 2 show impurities present in Artemether API, and artemether in three solvent systems: 20% ethanol+80% propellant; 50% ethanol+50% propellant; 100% ethanol; and a medium chain triglyceride, in this case, the triglyceride sold under the registered trade mark Miglyol® 810. Miglyol® is a medium chain triglyceride containing saturated C8 and C10 fatty acids, typically between 65-80% of caprylic acid (C8:0) and 20-35% of capric acid (C10:0). The propellant used in these test was 1,1,1,2 tetrafluoroethane, sold under the registered trade mark Zephex® 134a. Similar results were obtained for the propellants butane, Zephex® 227 (1,1,1,2,3,3,3 heptafluoropropane) and for a mixture of butane and propane. […] In all other cases, the impurities are at levels that exceed those permitted under the ICH Harmonised Tripartite Guidelines for Impurities in New Drug Products without specific identification or further toxicological examination.

[2] = animals, cited from earlier work
[3] = humans, cited from earlier work

- Stability of artemether (in words) [1]: not stable
Compound: CO[C@H]1O[C@@H]2O[C@@]3(C)CC[C@H]4[C@H](C)CC[C@@H]([C@H]1C)[C@@]24OO3 [artemether]
- Bioavailability ([2]; intramuscular injection): 54%
- Bioavailability ([2]; oral administration): 19-35%
- Bioavailability ([3]; intramuscular route): 25%
- Bioavailability ([3]; intrarectal route): 35%

From US20190142737A1, “SUBLINGUAL SPRAY FORMULATION COMPRISING DIHYDROARTEMESININ” (LondonPharma Ltd., priority 2009, published 2019)
